US5155215A, “Polychelating agents for image and spectral enhancement (and spectral shift)” (priority 1990, dated 1992)

Tests used:
[1] = cited from earlier work
[2] = precipitation at body pH; cited from earlier work
[3] = In vitro T1 relaxation of water protons (IBM PC 20 Minispectrometer, 20 MHz); format: physicochemical
Method: Microspheres were suspended at a concentration of 1 mg/ml by brief sonification. Because albumin microspheres have a fast-release (surface) component of Gd:DTPA as well as a controlled-release (interior) component, the spheres were washed, resuspended, and diluted serially for testing.
Thus, it was not necessary to wash and resuspend the materials prior to NMR testing.

[4] = In vivo NMR enhancement of normal rat tissues, image T1 and enhancement (0.35 Tesla Diasonics); design: species or system Sprague-Dawley rats
Text: Sprague-Dawley rats were imaged using a 0.35-Tesla, Diasonics clinical MR imaging system and a 30-cm rf coil. Three clinically relevant pulse sequences were used: 1) spin-echo with a TR of 0.5 seconds (for T1-weighted images), 2) inversion-recovery (IR) (for T1-weighted images), and 3) spin-echo with a TR of 2.0 seconds (for T2-weighted images). Diasonics software was used to calculate the area-averaged tissue intensities before and after injection of contrast agents. Dual pulse sequences (spin-echo, with TR's of 0.5 and 1.5 seconds or 1.0 and 2.0 seconds) were also used to calculate the in vivo T1 relaxation times. At the conclusion of imaging, the liver, spleen and kidneys were excised and their T1 (IR) and T2 (Carr-Purcell-Meiboom-Gill) relaxation times were determined at 37° C., using an IBM pC20 Minispectroneter. For these in vitro experiments, uninjected rats were used in place of preinjection controls.

[5] = T1 of freshly excised rat spleens after injection; format: in vivo, Sprague-Dawley rats
Text: Post-contrast images were obtained serially beginning immediately after the i.v. injection of contrast agents and continuing for several hours thereafter.

[6] = Enhanced T1-weighted blood flow images in cardiac chambers; format: in vivo, rats; details: i.v., rat heart chambers
Method: Gd:DTPA-dextran microspheres (at 0.03 mmoles Gd/kg) were injected i.v. at time zero into Sprayer-Dawley rats and images were obtained immediately and serially each 5 minutes×4 (spin-echo, multi-echo, TR=0.5 & 1.5).

[7] = Liver T1 decrease / liver image enhancement, effective dose; format: in vivo, mice and rats; details: 30 min
[8] = Whole-organ liver T1 after albumin microspheres; format: in vivo, CBA mice; details: 0.1 mmol/kg Gd, 30 min
Method: Microspheres (Gd:DTPA:dimeglumine:albumin) were tested in vivo by injecting them intravenously into 25 gm CBA mice (2 animals per group), allowing 30 minutes for uptake and sequestration by liver Kupffer cells, sacrificing the mice, and testing the excised organs. […] Radioisotope was quantified in a standard gamma counter.
The T1-weighted proton relaxation times of mouse livers were quantified by determining the whole-organ T1 relaxation time in a 20 MHz NMR spectrometer.

[9] = Proton T1 relaxation times in mouse organs (DEAE-dextran agents); format: in vivo, CBA mice
Method: Test materials were injected i.v. into 25 gm CBA mice. At 30 min the mice were sacrificed by decapitation (exsanguination) and the excised livers and kidneys assessed for changes in proton T1 relaxation times (20 MHz; IR pulse sequence). Doses of test materials were made equivalent based on in vitro potency (ID50 analysis).

[10] = MR imaging and proton T1 relaxation times in rats (DEAE-dextran agents); format: in vivo, Sprague-Dawley rats; details: Gd 0.30 (polymer, dimeglumine) or 0.15 (microspheres) mmol/kg
Method: Test materials were injected intravenously into 500 gm Sprague-Dawley rats. at approximately 30 minutes, the rats were placed in the head coil of a 0.35 Tesla clinical imaging device (Diasonics Corp.), and T1-weighted images (using both a spin-echo pulse sequence at TR's of 0.5, 1.5 and 2.0, and an inversion recovery sequence) were obtained on image slices of 0.5 cm thickness taken through the liver and kidneys. T1 relaxation times were determined from the TR=0.5 and 2.0 data using area-averaging of signal intensities and a proprietary software program for calculations. At the completion of imaging, the rats were sacrificed by decapitation (exsanguination). Their livers, kidneys and spleens were excised, tested for in vitro correlations with the in vivo changes in proton T1 relaxation times and then placed in buffered formalin fixative for histopathologic evaluation.

[11] = cited from earlier work; remark: listed apart in the source
[12] = tested on: human brain tumors; renal tumors; details: cited from earlier work
[13] = tested on: 7777-strain Morris hepatoma; assay: In vivo NMR image enhancement of a primary liver tumor (hepatoma); details: after injection
Method: After two to three weeks the local tumors had reached an average diameter of 0.5 and 1.0 cm. The rats were then imaged both before and after i.v. injections of Gd-DTPA or microsphere Gd-DTPA. MR imaging was performed in a 30cm rf coil with a 0.35 Tesla, Diasonics clinical MRI system (as described above). Post-contrast images were obtained serially beginning immediately after injection and continuing for several hours thereafter.

Compound: O=C(O)CN1CCN(CC(=O)O)CCN(CC(=O)O)CCN(CC(=O)O)CC1 [DOTA, 1,4,7,10-tetraazacyclododecane-N,N',N"-tetraacetic acid]
- Relaxivity relative to Gd-DTPA ([1]; wide range of Larmor frequencies): approximately 2 times greater

Compound: [Gd] [Gd, gadolinium]
- Paramagnetic dipole ([1]; Gd, seven unpaired 4f electrons): 7.9 Bohr magnetons
- Toxicity of the free form [2]: quite toxic

Compound: CNC[C@H](O)[C@@H](O)[C@H](O)[C@H](O)CO.CNC[C@H](O)[C@@H](O)[C@H](O)[C@H](O)CO.O=C([O-])CN(CCN(CC(=O)[O-])CC(=O)O)CCN(CC(=O)[O-])CC(=O)O.[Gd+3] [Gd:DTPA dimeglumine]
- IC50 ([3]; Gd, read-out: ID50 as molar concentration of Gd): 90 µM
- ID50 (total weight) ([3]; T1 to 50% of phosphate-buffered saline): 84 µg/mL
- Material concentration required to produce a 50% decrease in the T1 of water protons ([3]; total material): 90 µg/mL
- % Decrease in T1, kidney (30 min post vs. pre) ([4]; kidney, 30 min, image T1): 55.7%
- Time after which all liver enhancement was lost ([4]; liver): 50 min
- % Decrease in T1, liver (30 min post vs. pre) ([4]; liver, 30 min, image T1): 24.6%
- Bone marrow image enhancement ([4]; visual inspection): not Gd:DTPA dimeglumine
- % Decrease in T1 of Spleen (35 min post vs. pre) [5]: 14.4%
- Enhancement of blood flow images [6]: almost completely ineffective
- Change in liver T1's at the usual 30-minute imaging interval [7]: minimal changes in liver T1's
- Liver T1, % of Control [8]: 98.5%
- Liver T1 ([8]; saline 332): 327 ms
- T1 (% of control), kidney ([9]; kidney, 30 min, 0.23 mmol/kg DEAE agents, 0.47 mmol/kg Gd:DTPA dimeglumine, control 385 msec): 24%
- T1 (% of control), liver ([9]; liver, 30 min, 0.23 mmol/kg DEAE agents, 0.47 mmol/kg Gd:DTPA dimeglumine, control 330 msec): 83%
- Effectiveness at decreasing the T1 of liver ([9]; mouse liver, very high doses): relatively ineffective
- T1 (% of control), kidney, in vitro ([10]; excised kidney, control 492 msec): 25%
- T1 (% of control), liver, in vitro ([10]; excised liver, control 275 msec): 88%
- T1 (% of control), spleen, in vitro ([10]; excised spleen, control 464 msec): 86%
- T1 (% of control), kidney, in vivo ([10]; kidney, imaging): 57%
- T1 (% of control), liver, in vivo ([10]; liver, imaging): 83%
- Bloodstream clearance (1/2) ([11]; Weinman et al.): 20 min
- Quantity cleared by the kidneys ([11]; Weinman et al.): > 90%
- Imaging window ([11]; in vivo): ca. 30 minutes
- Number of optimal images after each injection ([11]; in vivo): ca. 2
- Relaxivity at higher proton Larmor frequencies ([1]; typically 15 Mhz): marked decrease in relaxivity
- Enhancement of renal tumors ([12]; human, in vivo): enhanced satisfactorily
- Enhancement of human brain tumors ([12]; preliminary clinical results): almost all human brain tumors undergo significant enhancement
- Time by which tumor contrast was significantly reduced [13]: 1.5 h
